Laboratory results published in patent US20130217060A1 (Butamax(TM) Advanced Biofuels LLC, priority 2007, published 2013).
Where two headings read alike, the source gives them in different places.

Legend:
[1] = test system: Lactobacillus plantarum PN0512; experiment: Growth of L. plantarum PN0512 in the presence of butanols at different temperatures (OD600 for six hours); format: cell-based; parameters: key to Growth in the presence of 1-butanol / Growth in the presence of isobutanol / Growth in the presence of 2-butanol: “+” = growth observed as an increase in OD600.; “−” = no growth observed, i.e. no change in OD600
[2] = test system: Saccharomyces cerevisiae BY4741; details: for % Growth Inhibition: six hours
Experimental: Tolerance levels were determined for yeast strain Saccharomyces cerevisiae BY4741 (described in Example 21) at 25° C. and 30° C. as follows. The strain was cultured in YPD medium. Overnight cultures in the absence of any test compound were started in 25 mL of YPD medium in 150 mL flasks with incubation at 30° C. or at 25° C. in shaking water baths. The next morning, each overnight culture was diluted into a 500 mL flask-containing 300 mL of fresh medium to an initial OD600 of about 0.1. The flasks were incubated in shaking water baths at 30° C. or 25° C., using the same temperature as used for each overnight culture. […] The ΔOD600 was calculated by subtracting the initial OD600 from the final OD600 at 6 hours. The percent growth inhibition relative to the control culture was calculated as follows: % Growth Inhibition=100−[100(Sample ΔOD600/Control ΔOD600)].

[3] = molecular target: 3-hydroxybutyryl-CoA dehydrogenase (Clostridium acetobutylicum, UniProt P52041); experiment: Hydroxybutyryl-CoA dehydrogenase activity (NADH oxidation, 340 nm); details: induced E. coli BL21-AI culture, one typical assay
3-hydroxybutyryl-CoA dehydrogenase, sequence (P52041 whole entry): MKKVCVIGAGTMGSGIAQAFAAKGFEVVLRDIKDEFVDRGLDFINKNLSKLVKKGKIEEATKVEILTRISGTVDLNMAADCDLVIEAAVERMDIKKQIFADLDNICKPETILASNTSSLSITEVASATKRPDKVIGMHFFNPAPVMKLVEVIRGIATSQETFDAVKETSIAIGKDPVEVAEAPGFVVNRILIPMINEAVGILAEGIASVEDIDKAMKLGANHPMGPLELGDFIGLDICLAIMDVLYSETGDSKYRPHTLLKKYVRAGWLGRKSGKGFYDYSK

acetoacetyl-CoA thiolase = experiment: Acetoacetyl-CoA thiolase activity in cell free extracts (absorbance 303 nm); details: cell free extract of arabinose-induced E. coli BL21-AI culture, one typical assay
butanol dehydrogenase = experiment: Butanol dehydrogenase activity (NADH oxidation, 340 nm); format: biochemical, Clostridium acetobutylicum; details: induced E. coli BL21-AI culture, one typical assay
[4] = test system: trans-2-enoyl-CoA reductase; experiment: Trans-2-enoyl-CoA reductase activity assay (Hoffmeister et al.); format: biochemical; details: induced E. coli BL21-AI culture carrying pRARE, one typical assay
Experimental: Trans-2-enoyl-CoA reductase activity was assayed as described by Hoffmeister et al. (J. Biol. Chem. 280, 4329-4338 (2005)).
Trans-2-enoyl-CoA reductase activity was assayed as described by Hoffmeister et al., J. Biol. Chem. 280:4329 (2005).
(§1) Enzyme assays were performed as described above.

[5] = test system: butyraldehyde dehydrogenase; experiment: Acylating aldehyde dehydrogenase activity (NADH formation, 340 nm); details: induced E. coli BL21-AI culture, one typical assay
crotonase = molecular target: T1, crotonase (Clostridium acetobutylicum, UniProt P52046); experiment: Crotonase activity assay (Stern); format: biochemical; details: induced E. coli BL21-AI culture, one typical assay
T1 construct: made in house; host or cells: E. coli BL21-AI (pDEST14crt); S. cerevisiae BY4741 (pNY11) and BY4743 (pNY103)
Experimental: Crotonase activity was assayed as described by Stern (Methods Enzymol. 1, 559-566, (1954)).
as §1

1-butanol
Growth in the presence of 1-butanol ([1]; 1.0 % w/v, 37° C.): +
Growth in the presence of 1-butanol ([1]; 1.2 % w/v, 37° C.): +
Growth in the presence of 1-butanol ([1]; 1.4 % w/v, 37° C.): +
Growth in the presence of 1-butanol ([1]; 1.5 % w/v, 25° C.): +
Growth in the presence of 1-butanol ([1]; 1.5 % w/v, 30° C.): +
Growth in the presence of 1-butanol ([1]; 1.5 % w/v, 37° C.): +
Growth in the presence of 1-butanol ([1]; 1.6 % w/v, 37° C.): +
Growth in the presence of 1-butanol ([1]; 1.8 % w/v, 37° C.): +
Growth in the presence of 1-butanol ([1]; 2.0 % w/v, 25° C.): +
Growth in the presence of 1-butanol ([1]; 2.0 % w/v, 30° C.): +
Growth in the presence of 1-butanol ([1]; 2.0 % w/v, 37° C.): +
Growth in the presence of 1-butanol ([1]; 2.1 % w/v, 37° C.): +
Growth in the presence of 1-butanol ([1]; 2.2 % w/v, 37° C.): +
Growth in the presence of 1-butanol ([1]; 2.3 % w/v, 37° C.): +
Growth in the presence of 1-butanol ([1]; 2.4 % w/v, 25° C.): +
Growth in the presence of 1-butanol ([1]; 2.4 % w/v, 30° C.): +
Growth in the presence of 1-butanol ([1]; 2.4 % w/v, 37° C.): −
Growth in the presence of 1-butanol ([1]; 2.7 % w/v, 30° C.): +
Growth in the presence of 1-butanol ([1]; 2.7 % w/v, 37° C.): −
Growth in the presence of 1-butanol ([1]; 2.9 % w/v, 25° C.): +
Growth in the presence of 1-butanol ([1]; 2.9 % w/v, 30° C.): −
Growth in the presence of 1-butanol ([1]; 2.9 % w/v, 37° C.): −
Growth in the presence of 1-butanol ([1]; 3.1 % w/v, 25° C.): +
Growth in the presence of 1-butanol ([1]; 3.1 % w/v, 30° C.): −
Growth in the presence of 1-butanol ([1]; 3.1 % w/v, 37° C.): −
Growth in the presence of 1-butanol ([1]; 3.2 % w/v, 25° C.): −
Growth in the presence of 1-butanol ([1]; 3.2 % w/v, 30° C.): −
Growth in the presence of 1-butanol ([1]; 3.3 % w/v, 25° C.): −
Growth in the presence of 1-butanol ([1]; 3.4 % w/v, 25° C.): −
Growth in the presence of 1-butanol ([1]; 3.4 % w/v, 30° C.): −
concentration in which growth was observed ([1]; 25° C.): 3.1%
concentration in which growth was not observed ([1]; 30° C.): 2.9%
concentration in which growth was observed ([1]; 30° C.): 2.7%
concentration in which growth was not observed ([1]; 37° C.): 2.4%
concentration in which growth was observed ([1]; 37° C.): 2.3%
Growth in the presence of 1-butanol ([1]; […] w/v, 37° C.): −
growth inhibition of strain BY4741 at 25° C. compared with 30° C. ([2]; 1% 1-butanol): less inhibited
% Growth Inhibition ([2]; 1% 1-butanol, 25° C.): 43%
% Growth Inhibition ([2]; 1% 1-butanol, 30° C.): 64%
% Growth Inhibition ([2]; 2% 1-butanol, 25° C.): No growth
% Growth Inhibition ([2]; 2% 1-butanol, 30° C.): No growth

BHBD protein: 3-hydroxybutyryl-CoA dehydrogenase (SEQ ID NO:6) from C. acetobutylicum ATCC 824 expressed in E. coli
specific activity (hydroxybutyryl-CoA dehydrogenase) [3]: 57.4 µmol/mg/min

ThIA protein: acetoacetyl-CoA thiolase (SEQ ID NO:2) from C. acetobutylicum ATCC 824 expressed in E. coli
specific activity (acetoacetyl-CoA thiolase) (acetoacetyl-CoA thiolase): 16.0 µmol/mg/min

ThIB protein: acetoacetyl-CoA thiolase (SEQ ID NO:4) from C. acetobutylicum ATCC 824 expressed in E. coli
specific activity (acetoacetyl-CoA thiolase) (acetoacetyl-CoA thiolase): 14.9 µmol/mg/min

B1: BdhA protein: butanol dehydrogenase (SEQ ID NO:16) from C. acetobutylicum 824 expressed in E. coli (protein, listed as Clostridium acetobutylicum)
chain: MLSFDYSIPTKVFFGKGKIDVIGEEIKKYGSRVLIVYGGGSIKRNGIYDRATAILKENNIAFYELSGVEPNPRITTVKKGIEICRENNVDLVLAIGGGSAIDCSKVIAAGVYYDGDTWDMVKDPSKITKVLPIASILTLSATGSEMDQIAVISNMETNEKLGVGHDDMRPKFSVLDPTYTFTVPKNQTAAGTADIMSHTFESYFSGVEGAYVQDGIAEAILRTCIKYGKIAMEKTDDYEARANLMWASSLAINGLLSLGKDRKWSCHPMEHELSAYYDITHGVGLAILTPNWMEYILNDDTLHKFVSYGINVWGIDKNKDNYEIAREAIKNTREYFNSLGIPSKLREVGIGKDKLELMAKQAVRNSGGTIGSLRPINAEDVLEIFKKSY
specific activity (butanol dehydrogenase) (butanol dehydrogenase): 0.102 µmol/mg/min

B2: BdhB protein: butanol dehydrogenase (SEQ ID NO:14) from C. acetobutylicum ATCC 824 expressed in E. coli (protein, listed as Clostridium acetobutylicum)
chain: MVDFEYSIPTRIFFGKDKINVLGRELKKYGSKVLIVYGGGSIKRNGIYDKAVSILEKNSIKFYELAGVEPNPRVTTVEKGVKICRENGVEVVLAIGGGSAIDCAKVIAAACEYDGNPWDIVLDGSKIKRVLPIASILTIAATGSEMDTWAVINNMDTNEKLIAAHPDMAPKFSILDPTYTYTVPTNQTAAGTADIMSHIFEVYFSNTKTAYLQDRMAEALLRTCIKYGGIALEKPDDYEARANLMWASSLAINGLLTYGKDTNWSVHLMEHELSAYYDITHGVGLAILTPNWMEYILNNDTVYKFVEYGVNVWGIDKEKNHYDIAHQAIQKTRDYFVNVLGLPSRLRDVGIEEEKLDIMAKESVKLTGGTIGNLRPVNASEVLQIFKKSV
specific activity (butanol dehydrogenase) (butanol dehydrogenase): 0.169 µmol/mg/min

B3: TER CAC0462 protein: putative trans-2-enoyl-CoA reductase (SEQ ID NO:10) from C. acetobutylicum ATCC 824 expressed in E. coli (protein, listed as Clostridium acetobutylicum)
chain: MIVKAKFVKGFIRDVHPYGCRREVLNQIDYCKKAIGFRGPKKVLIVGASSGFGLATRISVAFGGPEAHTIGVSYETGATDRRIGTAGWYNNIFFKEFAKKKGLVAKNFIEDAFSNETKDKVIKYIKDEFGKIDLFVYSLAAPRRKDYKTGNVYTSRIKTILGDFEGPTIDVERDEITLKKVSSASIEEIEETRKVMGGEDWQEWCEELLYEDCFSDKATTIAYSYIGSPRTYKIYREGTIGIAKKDLEDKAKLINEKLNRVIGGRAFVSVNKALVTKASAYIPTFPLYAAILYKVMKEKNIHENCIMQIERMFSEKIYSNEKIQFDDKGRLRMDDLELRKDVQDEVDRIWSNITPENFKELSDYKGYKKEFMNLNGFDLDGVDYSKDLDIELLRKLEP
specific activity (trans-2-enoyl-CoA reductase) [4]: 0.694 µmol/mg/min

B4: Ald protein: butyraldehyde dehydrogenase (SEQ ID NO:12) from C. beijerinckii ATCC 35702 expressed in E. coli (protein, listed as Clostridium beijerinckii)
chain: MNKDTLIPTTKDLKVKTNGENINLKNYKDNSSCFGVFENVENAISSAVHAQKILSLHYTKEQREKIITEIRKAALQNKEVLATMILEETHMGRYEDKILKHELVAKYTPGTEDLTTTAWSGDNGLTVVEMSPYGVIGAITPSTNPTETVICNSIGMIAAGNAVVFNGHPCAKKCVAFAVEMINKAIISCGGPENLVTTIKNPTMESLDAIIKHPSIKLLCGTGGPGMVKTLLNSGKKAIGAGAGNPPVIVDDTADIEKAGRSIIEGCSFDNNLPCIAEKEVFVFENVADDLISNMLKNNAVIINEDQVSKLIDLVLQKNNETQEYFINKKWVGKDAKLFLDEIDVESPSNVKCIICEVNANHPFVMTELMMPILPIVRVKDIDEAIKYAKIAEQNRKHSAYIYSKNIDNLNRFEREIDTTIFVKNAKSFAGVGYEAEGFTTFTIAGSTGEGITSARNFTRQRRCVLAG
specific activity (acylating aldehyde dehydrogenase) [5]: 0.106 µmol/mg/min

B5: crotonase protein: crotonase (SEQ ID NO:8) from C. acetobutylicum ATCC 824 expressed in E. coli (protein, listed as Clostridium acetobutylicum)
chain: MELNNVILEKEGKVAVVTINRPKALNALNSDTLKEMDYVIGEIENDSEVLAVILTGAGEKSFVAGADISEMKEMNTIEGRKFGILGNKVFRRLELLEKPVIAAVNGFALGGGCEIAMSCDIRIASSNARFGQPEVGLGITPGFGGTQRLSRLVGMGMAKQLIFTAQNIKADEALRIGLVNKVVEPSELMNTAKEIANKIVSNAPVAVKLSKQAINRGMQCDIDTALAFESEAFGECFSTEDQKDAMTAFIEKRKIEGFKNR
specific activity (crotonase) (crotonase): 444 µmol/mg/min
